Where two headings read alike, the source gives them in different places.
Experiment: Ex vivo biodistribution in tumor-bearing nude mice (non-tumor tissues)
Conditions: male, Balb/cAnNRj-Foxn1nu/nu (nude), mouse, iv, total radioactivity, ex vivo after PET/CT scan, i.v., n = 3
Protocol: For the evaluation of the in vivo pharmacokinetics, the two most promising HBPLs—[^18F]2 with the highest affinity to both target receptors and [^18F]4 with the highest hydrophilicity and still reasonable binding affinities—were selected. For PET/CT imaging, 6-week-old male nude mice (Balb/cAnNRj-Foxn1^nu/nu) were subcutaneously injected with 5 × 10^5 B16F10 cells into the right flank and 2.0–2.5 × 10^6 U87MG cells into the left flank to generate the respective receptor-positive tumors. When the tumors reached a sufficient size for imaging, each mouse was administered 4.15 ± 2.28 MBq of [^18F]2 or 3.95 ± 2.06 MBq of [^18F]4 via the lateral tail vein under isoflurane anesthesia. To determine the receptor specificity of both peptide parts of the labeled HBPLs and their relative contribution to overall tumor uptake, blocking experiments were also performed. […] After i.v. injection of the tracers, a dynamic PET scan, followed by a CT scan, was performed. The resulting PET/CT images and time–activity curves (TACs) are depicted in Figure 6, Figure 7 and Figure 8. After completion of the diagnostic scans, the mice were sacrificed, their organs (blood, spleen, liver, kidney, pancreas, lung, heart, brain, bone, muscle, tail, tumors, stomach, colon and small intestine) were collected and measured in a γ-counter for ex vivo biodistribution (see Supplementary Materials Table S1 for detailed results).
Each male nude mouse (six weeks old) was injected subcutaneously with 5 × 10^5 B16F10 cells into the right flank and 2.0–2.5 × 10^6 U87MG cells into the left flank. The health status and tumor growth of the mice were monitored regularly until the animals could be examined after 15–21 days, depending on the tumor size. For the in vivo experiments, the ^18F-radiolabeled compound was diluted in 0.9% saline to give a final EtOH concentration of <10%. Each mouse was injected with 4.15 ± 2.28 MBq of [^18F]2 or 3.95 ± 2.06 MBq of [^18F]4 via the lateral tail vein under isoflurane anesthesia. […] Each ^18F-labeled compound was studied with or without blocking in at least three mice. Mice were measured under isoflurane anesthesia in a small PET/SPECT/CT animal imaging system. First, a dynamic PET scan was performed over 90 min and the scan was framed in 29 timeframes (10 × 1 min, 10 × 2 min, 6 × 5 min, 3 × 10 min). Images were reconstructed using 12 iterations, a maximum likelihood expectation maximization (MLEM) algorithm including corrections for scattered radiation and decay and a voxel size of 0.5 mm. All PET scans were immediately followed by CT acquisition at a voltage of 45 kV and a current of 400 μA. The images were reconstructed using the filtered back projection (FBP) algorithm with a voxel size of 250 μm. The analysis of the data, including the generation of TACs of the kidneys, liver and tumors and the MIPs, was performed via PMOD (v3.8). For ex vivo biodistribution, the mice were sacrificed directly after the PET/CT scan. Organs (blood, spleen, liver, kidneys, pancreas, lungs, heart, brain, bone, muscle, tail, tumors, stomach, colon and small intestine) were collected, weighed and their radioactivity measured in a γ-counter. The percentage injected dose per gram (% ID/g) of each tissue was calculated from the determined values, organ weights, reference values and injected activity.

CCCC[C@H](NC(=O)CNC(=O)CNC(=O)CCOCCOCCOCCOCCOCCOCCOCCOCCOCCC(=O)NCCCN(CCCNC(=O)CCOCCOCCOCCOCCOCCOCCOCCOCCOCCC(=O)NCCCC[C@@H]1NC(=O)[C@@H](Cc2ccccc2)NC(=O)[C@H](CC(=O)O)NC(=O)CNC(=O)[C@H](CCCNC(=N)N)NC1=O)CC(=O)N[C@@H](CCCCNC(=O)CCC[N+](C)(C)Cc1ccc([Si](F)(C(C)(C)C)C(C)(C)C)cc1)C(N)=O)C(=O)N[C@H]1CC(=O)NCCCC[C@@H](C(N)=O)NC(=O)[C@H](Cc2c[nH]c3ccccc23)NC(=O)[C@H](CCCNC(=N)N)NC(=O)[C@@H](Cc2ccccc2)NC(=O)[C@H](Cc2c[nH]cn2)NC1=O [[^18F]4]
tissue uptake at 1.5 h (blood, NDP blocking (20 μg coinjected), read-out: ID/g, blood): 2.07 ± 0.94 %ID/g | tissue uptake at 1.5 h (blood, c(RGDyK) blocking (200 μg coinjected), read-out: ID/g, blood): 0.83 ± 0.06 %ID/g | tissue uptake at 1.5 h (blood, double blocking (NDP + c(RGDyK)), read-out: ID/g, blood): 1 ± 0.15 %ID/g | tissue uptake at 1.5 h (blood, without blocking, read-out: ID/g, blood): 0.59 ± 0.08 %ID/g | tissue uptake at 1.5 h (bone, NDP blocking (20 μg coinjected), read-out: ID/g, bone): 4.61 ± 0.71 %ID/g | tissue uptake at 1.5 h (bone, c(RGDyK) blocking (200 μg coinjected), read-out: ID/g, bone): 4.99 ± 0.71 %ID/g | tissue uptake at 1.5 h (bone, double blocking (NDP + c(RGDyK)), read-out: ID/g, bone): 2.99 ± 0.78 %ID/g | tissue uptake at 1.5 h (bone, without blocking, read-out: ID/g, bone): 18.1 ± 6.02 %ID/g | tissue uptake at 1.5 h (brain, NDP blocking (20 μg coinjected), read-out: ID/g, brain): 0.19 ± 0.07 %ID/g | tissue uptake at 1.5 h (brain, c(RGDyK) blocking (200 μg coinjected), read-out: ID/g, brain): 0.07 ± 0.02 %ID/g | tissue uptake at 1.5 h (brain, double blocking (NDP + c(RGDyK)), read-out: ID/g, brain): 0.07 ± 0.01 %ID/g | tissue uptake at 1.5 h (brain, without blocking, read-out: ID/g, brain): 0.1 ± 0.03 %ID/g | tissue uptake (colon, NDP blocking (20 μg coinjected), read-out: ID/g, colon): 0.96 ± 0.13 %ID/g | tissue uptake (colon, c(RGDyK) blocking (200 μg coinjected), read-out: ID/g, colon): 0.8 ± 0.32 %ID/g | tissue uptake (colon, double blocking (NDP + c(RGDyK)), read-out: ID/g, colon): 0.42 ± 0.05 %ID/g | tissue uptake (colon, without blocking, read-out: ID/g, colon): 0.77 ± 0.26 %ID/g | tissue uptake at 1.5 h (heart, NDP blocking (20 μg coinjected), read-out: ID/g, heart): 0.73 ± 0.06 %ID/g | tissue uptake at 1.5 h (heart, c(RGDyK) blocking (200 μg coinjected), read-out: ID/g, heart): 1.51 ± 0.57 %ID/g | tissue uptake at 1.5 h (heart, double blocking (NDP + c(RGDyK)), read-out: ID/g, heart): 0.52 ± 0.06 %ID/g | tissue uptake at 1.5 h (heart, without blocking, read-out: ID/g, heart): 0.56 ± 0.19 %ID/g | tissue uptake at 1.5 h (kidneys, NDP blocking (20 μg coinjected), read-out: ID/g, kidneys): 23.1 ± 4.97 %ID/g | tissue uptake at 1.5 h (kidneys, c(RGDyK) blocking (200 μg coinjected), read-out: ID/g, kidneys): 21.4 ± 4.04 %ID/g | tissue uptake at 1.5 h (kidneys, double blocking (NDP + c(RGDyK)), read-out: ID/g, kidneys): 26.5 ± 6.59 %ID/g | tissue uptake at 1.5 h (kidneys, without blocking, read-out: ID/g, kidneys): 7.72 ± 2.57 %ID/g | tissue uptake at 1.5 h (liver, NDP blocking (20 μg coinjected), read-out: ID/g, liver): 5.16 ± 0.56 %ID/g | tissue uptake at 1.5 h (liver, c(RGDyK) blocking (200 μg coinjected), read-out: ID/g, liver): 10.4 ± 3.65 %ID/g | tissue uptake at 1.5 h (liver, double blocking (NDP + c(RGDyK)), read-out: ID/g, liver): 4.04 ± 1.06 %ID/g | tissue uptake (liver, without blocking, read-out: ID/g, liver): 8.3 ± 2.77 %ID/g | tissue uptake at 1.5 h (lung, NDP blocking (20 μg coinjected), read-out: ID/g, lung): 1.25 ± 0.06 %ID/g | tissue uptake at 1.5 h (lung, c(RGDyK) blocking (200 μg coinjected), read-out: ID/g, lung): 2.75 ± 1.04 %ID/g | tissue uptake at 1.5 h (lung, double blocking (NDP + c(RGDyK)), read-out: ID/g, lung): 0.88 ± 0.14 %ID/g | tissue uptake at 1.5 h (lung, without blocking, read-out: ID/g, lung): 3.45 ± 1.15 %ID/g | tissue uptake at 1.5 h (muscle, NDP blocking (20 μg coinjected), read-out: ID/g, muscle): 0.63 ± 0.07 %ID/g | tissue uptake at 1.5 h (muscle, c(RGDyK) blocking (200 μg coinjected), read-out: ID/g, muscle): 1.62 ± 0.42 %ID/g | tissue uptake at 1.5 h (muscle, double blocking (NDP + c(RGDyK)), read-out: ID/g, muscle): 2.58 ± 1.28 %ID/g | tissue uptake at 1.5 h (muscle, without blocking, read-out: ID/g, muscle): 0.07 ± 0.02 %ID/g | tissue uptake at 1.5 h (pancreas, NDP blocking (20 μg coinjected), read-out: ID/g, pancreas): 0.52 ± 0.12 %ID/g

Source: article PMC8228600, “Design, Synthesis, In Vitro and In Vivo Evaluation of Heterobivalent SiFAlin-Modified Peptidic Radioligands Targeting Both Integrin αvβ3 and the MC1 Receptor—Suitable for the Specific Visualization of Melanomas?” (Pharmaceuticals, 2021)
